SMILES strings stand for the structures.

From patent EP0212479A1, “Use of lactam amides as efficiency improvers in animals” (BAYER AG, priority 1985, dated 1987) come the findings set out here.

The test can be described thus: Rat feeding trial (Ratten-Fütterungsversuch), growth promotion. The test is classed as in vivo, Laborratten vom Typ SPF Wistar. Conditions: female rats 90-110 g, active substance in feed ad lib, Dosis 25 ppm, 13-day trial, weight gain relative to Kontrolle = 100. The source says:
Weibliche Laborratten 90-110 g schwer vom Typ SPF Wistar tZüchtung Hagemann) werden ad lib mit Standard Rattenfutter, das mit der gewünschten Menge Wirkstoff versetzt ist, gefüttert. Jeder Versuchsansatz wird mit Futter der identischen Charge durchgeführt, so daß Unterschiede in der Zusammensetzung des Futters die Vergleichbarkeit der Ergebnisse nicht beeinträchtigen können.
Die Ratten erhalten Wasser ad lib.
Jeweils 12 Ratten bilden eine Versuchsgruppe und werden mit Futter, das mit der gewünschten Menge Wirkstoff versetzt ist gefüttert. Eine Kontrollgruppe erhält Futter ohne Wirkstoff. Das durchschnittliche Körpergewicht sowie die Streuung in den Körpergewichten der Ratten ist in jeder Versuchsgruppe gleich, so daß eine Vergleichbarkeit der Versuchsgruppen untereinander gewährleistet ist.
Während des 13-tägigen Versuchs werden Gewichtszunahme und Futterverbrauch bestimmt.
Es werden die aus der Tabelle ersichtlichen Ergebnisse erhalten: […]
Regarding `FC(F)(F)c1cccc(CNC2=NCCCCC2)c1` [14 (Maleinat)], the Zuwachs was found to be 117.
With `CC(NC1=NCCCCC1)c1cccc(C(F)(F)F)c1` (stereo not drawn) [Beispiel 1], the Zuwachs came to 111.
The compound `FC(F)(F)c1ccc(CNC2=NCCCCC2)cc1` [Beispiel 3] yielded a Zuwachs of 107.
`CC(C)c1ccc(C(F)(F)F)cc1CNC1=NCCCCC1` [Beispiel 9] displayed a Zuwachs of 104.
`FC(F)(F)c1ccccc1CNC1=NCCCCC1` [Beispiel 10] gave a Zuwachs of 107.
Turning to `FC(F)(F)c1cccc(CNC2=NCCCCC2)c1` [Beispiel 13, 2-(3-Trifluormethyl-benzylamino)-tetrahydroazepin], the Zuwachs is 112.
